Measurements published in US20250059205A1, “Heterocyclic Compounds and Methods of Use” (AMGEN INC., priority 2021, published 2025).

Experiments:
[1] = target: His-tagged KRAS G12D protein (Homo sapiens, UniProt P01116, G12D); assay: KRAS G12D TR-FRET Assay; type: binding
[2] = target: GDP-bound KRAS protein (aa 1-169), containing both G12D and C118A amino acid substitutions (Homo sapiens, UniProt P01116, C118A/G12D); assay: KRAS G12D Coupled Nucleotide Exchange Assay; type: biochemical; settings: 2 h compound pre-incubation
Procedure: Following compound pre-incubation, purified SOS protein (aa 564-1049) and GTP (Roche 10106399001) were added to the assay wells and incubated for an additional 30 min. […] The assay plates were then read on a PerkinElmer EnVision Multilabel Reader, using AlphaScreen® technology, and data were analyzed using a 4-parameter logistic model to calculate IC50 values.

[3] = test system: Phosphorylation of ERK1/2 in A-427 cells; assay: Phospho-ERK1/2 MSD Assay (A-427 cells); type: cell-based; settings: Homo sapiens, A-427, 2 h, 2 h treatment, read-out: p-ERK (A427 cells) IC50
Summary of the method: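 ERK1/2 phosphorylation measured by Meso Scale whole-cell lysate assay after A-427 cells were exposed to a titration of compound for 2 h at 37 °C.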

[4] = test system: Phosphorylation of ERK1/2 in AsPC-1 cells; assay: Phospho-ERK1/2 MSD Assay (AsPC-1 cells); type: cell-based; settings: Homo sapiens, ASPC1, 2 h, 2 hours treatment, read-out: p-ERK (AsPC-1 cells) IC50
Summary of the method: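 Read-out: MSD electrochemiluminescent detection of phosphorylated ERK1/2 in whole-cell lysates, fitted to a 4-parameter logistic curve for IC50. Prior to lysis, AsPC-1 cells (25,000 per well) received a 2 h compound dose-response at 37 °C.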

GDP-bound KRAS protein (aa 1-169), containing both G12D and C118A amino acid substitutions, sequence (P01116 1-169 isoform P01116-2 G12D/C118A): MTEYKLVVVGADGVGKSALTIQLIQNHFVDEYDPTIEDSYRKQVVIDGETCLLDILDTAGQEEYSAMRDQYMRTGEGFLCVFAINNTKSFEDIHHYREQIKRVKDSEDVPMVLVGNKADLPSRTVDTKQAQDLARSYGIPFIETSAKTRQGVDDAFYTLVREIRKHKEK
His-tagged KRAS G12D protein, sequence (P01116 1-188 isoform P01116-2 G12D): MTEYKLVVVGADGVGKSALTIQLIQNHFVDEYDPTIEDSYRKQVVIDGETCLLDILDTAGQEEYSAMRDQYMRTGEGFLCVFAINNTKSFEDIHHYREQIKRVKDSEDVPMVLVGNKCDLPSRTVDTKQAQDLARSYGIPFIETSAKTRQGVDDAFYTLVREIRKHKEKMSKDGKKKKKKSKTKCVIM

## CCc1c(F)ccc2cc(O)cc(-c3c(F)cc4c(N5C[C@H]6CC[C@@H](C5)N6)nc(OCC(O)(CC)CC)nc4c3F)c12 [Example 123, 4-(4-((1R,5S)-3,8-diazabicyclo[3.2.1]octan-3-yl)-2-(2-ethyl-2-hydroxybutoxy)-6,8-difluoroquinazolin-7-yl)-5-ethyl-6-fluoronaphthalen-2-ol]
[1]
  IC50: 0.012 µM
[2]
  Avg 2 h Coupled Exchange IC50: 0.012 µM
[3]
  IC50: 1.99 µM
[4]
  IC50: 2.24 µM

## Cc1c(Cl)cc2[nH]ncc2c1-c1ccc2c(N3C[C@H]4CC[C@@H](C3)N4)nc(OC[C@@]34CCCN3C[C@H](F)C4)nc2c1 [Example 40, 4-((1R,5S)-3,8-diazabicyclo[3.2. 1]octan-3-yl)-7-(6-chloro-5-methyl-1H-indazol-4-yl)-2-(((2R,7aS)-2-fluorotetrahydro-1H-pyrrolizin-7a(5H)-yl)methoxy) quinazoline]
[1]
  IC50: 0.011 µM
[2]
  Avg 2 h Coupled Exchange IC50: 0.006 µM
[3]
  IC50: 0.686 µM
[4]
  IC50: 2.39 µM

## Cc1c(-c2cc(O)cc3cccc(Cl)c23)ccc2c(N3C[C@@H]4CC[C@H]3CN4)nc(OC[C@@]34CCCN3C[C@H](F)C4)nc12 [Example 96, 4-(4-((1S,4S)-2,5-diazabicyclo[2.2. 2]octan-2-yl)-2-(((2R,7aS)-2-fluorotetrahydro-1H-pyrrolizin-7a(5H)-yl)methoxy)-8-methylquinazolin-7-yl)-5-chloronaphthalen-2-ol]
[1]
  IC50: 0.007 µM
[2]
  Avg 2 h Coupled Exchange IC50: 0.005 µM
[3]
  IC50: 0.095 µM
[4]
  IC50: 0.213 µM

## N#Cc1cccc2cc(O)cc(-c3c(F)cc4c(N5C[C@H]6CC[C@@H](C5)N6)nc(OC[C@@]56CCCN5C[C@H](F)C6)nc4c3F)c12 [Example 204, 8-(4-((1R,5S)-3,8-Diazabicyclo[3.2.1]octan-3-yl)-6,8-difluoro-2-(((2R,7aS)-2-fluorotetrahydro-1H-pyrrolizin-7a(5H)-yl)methoxy)quinazolin-7-yl)-6-hydroxy-1-naphthonitrile]
[1]
  IC50: 0.002 µM
[2]
  Avg 2 h Coupled Exchange IC50: 0.003 µM
[3]
  IC50: 0.026 µM
[4]
  IC50: 0.098 µM

## CCc1c(F)ccc2cccc(-c3ccc4c(N5C[C@H]6CC[C@@H](C5)N6)nc(OC[C@@]56CCCN5C[C@H](F)C6)nc4c3F)c12 [Example 90, 4-((1R,5S)-3,8-diazabicyclo[3.2. 1]octan-3-yl)-7-(8-ethyl-7-fluoronaphthalen-1-yl)-8-fluoro-2-(((2R,7aS)-2-fluorotetrahydro-1H-pyrrolizin-7a(5H)-yl)methoxy) quinazoline]
[1]
  IC50: 0.004 µM
[2]
  Avg 2 h Coupled Exchange IC50: 0.003 µM
[3]
  IC50: 0.454 µM
[4]
  IC50: 0.79 µM

## CCc1c(F)ccc2cc(O)cc(-c3ccc4c(N5C[C@@H]6CC[C@H]5CN6)nc(OC[C@@]56CCCN5C[C@H](F)C6)nc4c3C)c12 [Example 92, 4-(4-((1S,4S)-2,5-diazabicyclo[2.2. 2]octan-2-yl)-2-(((2R,7aS)-2-fluorotetrahydro-1H-pyrrolizin-7a(5H)-yl)methoxy)-8-methylquinazolin-7-yl)-5-ethyl-6-fluoronaphthalen-2-ol]
[1]
  IC50: 0.024 µM
[2]
  Avg 2 h Coupled Exchange IC50: 0.033 µM
[3]
  IC50: 0.88 µM
[4]
  IC50: 0.829 µM

## CCc1c(F)ccc2cc(O)cc(-c3ccc4c(N5C[C@H]6CC[C@@H](C5)N6)cc(OC[C@@]56CCCN5C[C@H](F)C6)nc4c3F)c12 [Example 211, 4-(4-((1R,5S)-3,8-Diazabicyclo[3.2.1]octan-3-yl)-8-fluoro-2-(((2R,7aS)-2-fluorotetrahydro-1H-pyrrolizin-7a(5H)-yl)methoxy)quinolin-7-yl)-5-ethyl-6-fluoronaphthalen-2-ol]
[1]
  IC50: 0.018 µM
[2]
  Avg 2 h Coupled Exchange IC50: 0.029 µM
[3]
  IC50: 6.29 µM
[4]
  IC50: 8.75 µM

## Fc1c(-c2cc(Cl)cc3ccccc23)c(Cl)cc2c(N3C[C@H]4CC[C@@H](C3)N4)nc(OC[C@@]34CCCN3C[C@H](F)C4)nc12 [Example 78, 4-((1R,5S)-3,8-diazabicyclo[3.2. 1]octan-3-yl)-6-chloro-7-(3-chloronaphthalen-1-yl)-8-fluoro-2-(((2R,7aS)-2-fluorotetrahydro-1H-pyrrolizin-7a(5H)-yl)methoxy) quinazoline]
[1]
  IC50: 0.226 µM
[2]
  Avg 2 h Coupled Exchange IC50: 0.090 µM
[3]
  IC50: > 10 µM
[4]
  IC50: 6.03 µM

## CC(C)(O)COc1nc(N2C[C@H]3CC[C@@H](C2)N3)c2cc(F)c(-c3cc(O)cc4ccccc34)c(F)c2n1 [Example 64, 4-(4-((1R,5S)-3,8-diazabicyclo[3.2. 1]octan-3-yl)-6,8-difluoro-2-(2-hydroxy-2-methylpropoxy)quinazolin-7-yl)naphthalen-2-ol]
[1]
  IC50: 0.051 µM
[2]
  Avg 2 h Coupled Exchange IC50: 0.017 µM
[3]
  IC50: 5.05 µM
[4]
  IC50: 7.03 µM

## Oc1cc(-c2ccc3c(N4C[C@H]5CC[C@@H](C4)N5)nc(OC[C@@]45CCCN4C[C@H](F)C5)nc3c2F)c2c(Cl)cccc2c1 [Example 56, 4-(4-((1R,5S)-3,8-diazabicyclo[3.2. 1]octan-3-yl)-8-fluoro-2-(((2R,7aS)-2-fluorotetrahydro-1H-pyrrolizin-7a(5H)-yl)methoxy)quinazolin-7-yl)-5-chloronaphthalen-2-ol]
[1]
  IC50: 0.005 µM
[2]
  Avg 2 h Coupled Exchange IC50: 0.004 µM
[3]
  IC50: 0.023 µM
[4]
  IC50: 0.109 µM

## C#Cc1cccc2cc(O)cc(-c3c(F)cc4c(N5C[C@@H]6CC[C@H]5CN6)nc(OC[C@@]56CCCN5C[C@H](F)C6)nc4c3F)c12 [Example 180, 4-(4-((1S,4S)-2,5-diazabicyclo[2.2.2]octan-2-yl)-6,8-difluoro-2-(((2R,7aS)-2-fluorotetrahydro-1H-pyrrolizin-7a(5H)-yl)methoxy)quinazolin-7-yl)-5-ethynylnaphthalen-2-ol]
[1]
  IC50: 0.003 µM
[2]
  Avg 2 h Coupled Exchange IC50: 0.004 µM
[3]
  IC50: 0.003 µM
[4]
  IC50: 0.018 µM

## CCc1cccc2cc(O)cc(-c3ccc4c(N5C[C@H]6CC[C@@H](C5)N6)nc(OC[C@@]56CCCN5C[C@H](F)C6)nc4c3F)c12 [Example 169, 4-(4-((1R,5S)-3,8-diazabicyclo[3.2.1]octan-3-yl)-8-fluoro-2-(((2R,7aS)-2-fluorotetrahydro-1H-pyrrolizin-7a(5H)-yl)methoxy)quinazolin-7-yl)-5-ethylnaphthalen-2-ol]
[1]
  IC50: 0.005 µM
[2]
  Avg 2 h Coupled Exchange IC50: 0.005 µM
[3]
  IC50: 0.009 µM
[4]
  IC50: 0.072 µM

## Oc1cc(-c2ccc3c(N4C[C@@H]5CC[C@H]4CN5)nc(OC[C@@]45CCCN4C[C@H](F)C5)nc3c2F)c2ccccc2c1 [Example 45, 4-(4-((1S,4S)-2,5-diazabicyclo[2.2. 2]octan-2-yl)-8-fluoro-2-(((2R,7aS)-2-fluorotetrahydro-1H-pyrrolizin-7a(5H)-yl)methoxy)quinazolin-7-yl)naphthalen-2-ol]
[1]
  IC50: 0.004 µM
[2]
  Avg 2 h Coupled Exchange IC50: 0.002 µM
[3]
  IC50: 0.025 µM
[4]
  IC50: 0.19 µM

## CCc1c(F)ccc2cc(O)cc(-c3ccc4c(N5[C@@H]6CC[C@H]5CNC6)nc(OC[C@@]56CCCN5C[C@H](F)C6)nc4c3F)c12 [Example 146, 4-(4-((1R,5S)-3,8-diazabicyclo[3.2.1]octan-8-yl)-8-fluoro-2-(((2R,7aS)-2-fluorotetrahydro-1H-pyrrolizin-7a(5H)-yl)methoxy)quinazolin-7-yl)-5-ethyl-6-fluoronaphthalen-2-ol]
[1]
  IC50: 0.001 µM
[2]
  Avg 2 h Coupled Exchange IC50: 0.003 µM
[3]
  IC50: 0.083 µM
[4]
  IC50: 0.129 µM

## CCc1c(F)ccc2cc(O)cc(-c3c(F)cc4c(N5C[C@H]6CC[C@@H](C5)N6)nc(OC[C@@H]5CC(F)(F)CN5)nc4c3F)c12 [Example 217, 4-(4-((1R,5S)-3,8-diazabicyclo[3.2.1]octan-3-yl)-2-(((S)-4,4-difluoropyrrolidin-2-yl)methoxy)-6,8-difluoroquinazolin-7-yl)-5-ethyl-6-fluoronaphthalen-2-ol]
[1]
  IC50: 0.004 µM
[2]
  Avg 2 h Coupled Exchange IC50: 0.004 µM
[3]
  IC50: 0.218 µM
[4]
  IC50: 0.414 µM

## Oc1cc(-c2c(Cl)cc3c(N4C[C@H]5CC[C@@H](C4)N5)nc(OC[C@@]45CCCN4C[C@H](F)C5)nc3c2F)c2c(F)cccc2c1 [Example 137, 4-(4-((1R,5S)-3,8-diazabicyclo[3.2.1]octan-3-yl)-6-chloro-8-fluoro-2-(((2R,7aS)-2-fluorotetrahydro-1H-pyrrolizin-7a(5H)-yl)methoxy)quinazolin-7-yl)-5-fluoronaphthalen-2-ol]
[1]
  IC50: 0.037 µM
[2]
  Avg 2 h Coupled Exchange IC50: 0.034 µM
[3]
  IC50: 0.411 µM
[4]
  IC50: 1.71 µM

## CN1C[C@H](F)C[C@H]1COc1nc(N2[C@@H]3CNC[C@H]2COC3)c2cc(F)c(-c3cc(O)cc4ccccc34)c(F)c2n1 [Example 18, 4-(4-((1R,5S)-3-oxa-7,9-diazabicyclo[3.3. 1]nonan-9-yl)-6,8-difluoro-2-(((2S,4R)-4-fluoro-1-methylpyrrolidin-2-yl)methoxy)quinazolin-7-yl)naphthalen-2-ol]
[1]
  IC50: 0.06 µM
[2]
  Avg 2 h Coupled Exchange IC50: 0.018 µM
[3]
  IC50: 1.59 µM
[4]
  IC50: 2.96 µM
